The values below come from paper PMC8154574 (Journal of Medicinal Chemistry, 2021).

Test [1] deals with T1, hA2AAR (Homo sapiens, UniProt P29274). The conditions noted are these: label-free whole-cell assay, HEK293hA2AR.
Test [2] addresses T1, hA2AAR. The note with it: 1 μM; all adenosine receptor subtypes.
For test [3] the following is noted: patients with heart failure; cited from earlier work.

T1 sequence (P29274 whole entry): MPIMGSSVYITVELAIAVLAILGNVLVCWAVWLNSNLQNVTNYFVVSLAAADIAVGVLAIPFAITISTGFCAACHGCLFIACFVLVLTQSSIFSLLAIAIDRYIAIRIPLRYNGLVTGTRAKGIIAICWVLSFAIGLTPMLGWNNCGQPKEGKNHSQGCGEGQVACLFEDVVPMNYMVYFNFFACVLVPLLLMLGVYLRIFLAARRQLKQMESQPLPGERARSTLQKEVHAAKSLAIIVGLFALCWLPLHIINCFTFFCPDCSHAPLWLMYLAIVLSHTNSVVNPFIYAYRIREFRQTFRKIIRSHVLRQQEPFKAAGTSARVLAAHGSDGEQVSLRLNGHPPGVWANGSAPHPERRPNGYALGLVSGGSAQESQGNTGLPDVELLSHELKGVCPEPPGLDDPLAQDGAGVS

For the compound `Nc1nc(SCc2ncc[nH]2)nc(-c2ccccc2)n1` [Compound 2, 4-(1H-Imidazol-2-yl)methylthio-6-phenyl-1,3,5-triazin-2-amine], the “functional behavior / intrinsic activity at hA2AAR” value on hA2AAR [1] is listed as “inverse agonism”.

`N#Cc1c(SCc2ncc[nH]2)nc(N)nc1-c1ccccc1` [Compound 3, 4-((1H-Imidazol-2-yl)methylthio)-2-amino-6-phenylpyrimidine-5-carbonitrile]: at hA2AAR [1], the “functional behavior / intrinsic activity at hA2AAR” value is reported as “inverse agonist”. As for `Nc1cc(-c2ccccc2)cc(SCc2ncc[nH]2)n1` [Compound 5, 6-(((1H-Imidazol-2-yl)methyl)thio)-4-phenylpyridin-2-amine], the “displacement of radioligand binding in preliminary single-concentration assays” value at hA2AAR [2] is on record as “no or negligible displacement”. As for `N#Cc1c(-c2ccccc2)cc(N)nc1SCc1ncc[nH]1` [Compound 6, 2-(((1H-Imidazol-2-yl)methyl)thio)-6-amino-4-phenylnicotinonitrile], the “functional behavior / intrinsic activity at hA2AAR” value on hA2AAR [1] is reported as “did not show any measurable degree of intrinsic activity”.

As for `N#Cc1c(SCc2csc(-c3ccc(Cl)cc3)n2)nc(N2CCCC2)c(C#N)c1-c1ccc(OCCO)cc1` [neladenoson], the “primary endpoint of phase 2b clinical trial” value in test [3] is “failed to meet the primary endpoint”.
